This passage reports Ki results from US7329652B2, “Diaminotriazole compounds useful as protein kinase inhibitors” (Vertex Pharamaceuticals Incorporated, priority 2004, dated 2008).

SMILES strings stand for the structures. pKi: −log10 of the molar value. Where two headings read alike, the source gives them in different places.

The target of test [1] is T1, JAK3 (Homo sapiens, UniProt P52333).
T1 sequence (P52333 1-1124): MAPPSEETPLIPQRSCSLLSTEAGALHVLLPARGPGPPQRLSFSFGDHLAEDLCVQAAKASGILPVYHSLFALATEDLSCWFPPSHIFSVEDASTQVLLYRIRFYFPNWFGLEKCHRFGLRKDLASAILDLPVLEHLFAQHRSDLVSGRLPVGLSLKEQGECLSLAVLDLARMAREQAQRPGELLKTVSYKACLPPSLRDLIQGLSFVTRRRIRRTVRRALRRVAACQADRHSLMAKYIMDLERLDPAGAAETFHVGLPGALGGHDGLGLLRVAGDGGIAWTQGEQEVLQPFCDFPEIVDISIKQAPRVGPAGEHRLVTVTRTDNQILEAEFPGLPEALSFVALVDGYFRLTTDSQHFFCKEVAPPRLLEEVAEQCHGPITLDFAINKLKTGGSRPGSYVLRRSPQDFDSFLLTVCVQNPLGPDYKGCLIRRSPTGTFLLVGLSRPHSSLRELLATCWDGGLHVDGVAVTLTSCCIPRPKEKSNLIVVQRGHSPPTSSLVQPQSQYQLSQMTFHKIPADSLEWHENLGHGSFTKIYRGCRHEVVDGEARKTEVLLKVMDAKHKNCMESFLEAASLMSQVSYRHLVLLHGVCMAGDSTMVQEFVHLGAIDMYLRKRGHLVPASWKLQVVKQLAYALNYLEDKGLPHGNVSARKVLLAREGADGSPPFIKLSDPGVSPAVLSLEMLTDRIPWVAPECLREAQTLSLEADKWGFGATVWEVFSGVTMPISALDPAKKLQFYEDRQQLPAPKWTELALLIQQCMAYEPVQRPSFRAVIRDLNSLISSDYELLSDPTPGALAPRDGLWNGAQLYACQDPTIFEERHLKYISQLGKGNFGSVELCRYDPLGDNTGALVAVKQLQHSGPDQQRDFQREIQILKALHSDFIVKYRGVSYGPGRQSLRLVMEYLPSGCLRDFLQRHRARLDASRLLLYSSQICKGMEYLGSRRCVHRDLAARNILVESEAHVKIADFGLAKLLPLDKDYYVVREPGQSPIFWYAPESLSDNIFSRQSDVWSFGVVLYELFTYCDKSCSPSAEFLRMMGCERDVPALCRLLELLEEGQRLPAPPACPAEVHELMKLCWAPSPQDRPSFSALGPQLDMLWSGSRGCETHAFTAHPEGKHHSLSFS
The test is described as follows: JAK3 inhibition assay (radiometric 33P filter assay). The test is classed as biochemical. Here is the method: (§1) Compounds were screened for their ability to inhibit JAK using the assay shown below. Reactions were carried out in a kinase buffer containing 100 mM HEPES (pH 7.4), 1 mM DTT, 10 mM MgCl2, 25 mM NaCl, and 0.01% BSA.
(§2) Substrate concentrations in the assay were 5 μM ATP (200 uCi/μmole ATP) and 1 μM poly(Glu)4Tyr. Reactions were carried out at 25° C. and 1 nM JAK3.
(§3) To each well of a 96 well polycarbonate plate was added 1.5 μl of a candidate JAK3 inhibitor along with 50 μl of kinase buffer containing 2 μM poly(Glu)4Tyr and 10 μM ATP. This was then mixed and 50 μl of kinase buffer containing 2 nM JAK3 enzyme was added to start the reaction. After 20 minutes at room temperature (25° C.), the reaction was stopped with 50 μl of 20% trichloroacetic acid (TCA) that also contained 0.4 mM ATP. The entire contents of each well were then transferred to a 96 well glass fiber filter plate using a TomTek Cell Harvester. After washing, 60 μl of scintillation fluid was added and ^33P incorporation detected on a Perkin Elmer TopCount.

For test [2], the target named is JAK-2 enzyme (Homo sapiens, UniProt O60674). The test is described as follows: JAK2 inhibition assay (radiometric 33P filter assay). Type of test: biochemical. The method, then:
as §1, §2, §3
The assays were as described above in Example 25 except that JAK-2 enzyme was used, the final poly(Glu)4Tyr concentration was 15 μM, and final ATP concentration was 12 μM.

The mark [3] stands for this setting: 1 μM poly(Glu)4Tyr, 5 μM ATP, 1 nM JAK3, 25° C., read-out: JAK3 inhibition data (Ki).
Setting [4] is: 15 μM poly(Glu)4Tyr, 12 μM ATP, read-out: JAK2 inhibition data (Ki).

Sequence of JAK-2 enzyme (O60674 whole entry, species assumed): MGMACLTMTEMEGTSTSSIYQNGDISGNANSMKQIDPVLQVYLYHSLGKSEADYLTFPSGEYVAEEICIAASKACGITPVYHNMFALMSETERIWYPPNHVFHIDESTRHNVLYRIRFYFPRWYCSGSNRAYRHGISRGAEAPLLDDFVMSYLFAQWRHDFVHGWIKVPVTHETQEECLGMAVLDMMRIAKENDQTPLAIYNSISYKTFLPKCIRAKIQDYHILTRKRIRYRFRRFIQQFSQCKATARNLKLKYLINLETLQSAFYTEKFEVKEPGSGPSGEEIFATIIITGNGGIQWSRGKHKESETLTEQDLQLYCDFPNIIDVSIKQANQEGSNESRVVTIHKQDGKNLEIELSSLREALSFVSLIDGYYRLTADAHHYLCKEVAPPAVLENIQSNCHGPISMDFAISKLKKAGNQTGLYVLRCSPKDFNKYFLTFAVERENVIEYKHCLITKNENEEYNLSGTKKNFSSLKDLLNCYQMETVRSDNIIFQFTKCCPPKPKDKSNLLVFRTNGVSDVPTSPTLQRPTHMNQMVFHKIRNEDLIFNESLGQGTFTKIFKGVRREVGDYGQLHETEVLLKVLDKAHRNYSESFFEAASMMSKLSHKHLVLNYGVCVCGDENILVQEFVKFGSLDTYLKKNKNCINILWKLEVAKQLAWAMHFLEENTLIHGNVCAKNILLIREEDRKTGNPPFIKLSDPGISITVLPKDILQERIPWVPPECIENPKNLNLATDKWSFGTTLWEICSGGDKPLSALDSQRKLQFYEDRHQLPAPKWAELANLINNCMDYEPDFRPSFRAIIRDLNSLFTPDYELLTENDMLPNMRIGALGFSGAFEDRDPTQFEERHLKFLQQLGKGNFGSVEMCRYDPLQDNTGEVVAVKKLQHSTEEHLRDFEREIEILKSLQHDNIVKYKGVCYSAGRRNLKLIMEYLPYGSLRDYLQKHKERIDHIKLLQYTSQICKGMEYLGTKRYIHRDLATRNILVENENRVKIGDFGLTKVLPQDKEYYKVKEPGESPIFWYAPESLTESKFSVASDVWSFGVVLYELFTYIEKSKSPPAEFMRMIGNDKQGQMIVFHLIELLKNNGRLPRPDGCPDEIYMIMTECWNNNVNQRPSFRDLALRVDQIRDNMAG

Usually pKi stands for the Ki on a negative log10 scale, so that one unit is a factor of ten. For the compound `CC(=O)N1CCCN(c2cc(-n3nc(Nc4ccc(N5CCN(C(=O)OC(C)(C)C)CC5)cc4)nc3N)ncn2)CC1` [Compound 34], the pKi in test [1] (setting [3]) and in test [2] (setting [4]) was over 7.30 throughout.

As for `CCOC(=O)N1CCCN(c2cc(-n3nc(Nc4ccc(N5CCN(C(=O)OC(C)C)CC5)cc4)nc3N)ccn2)CC1` [Compound 157], the pKi in test [1] (setting [3]) and in test [2] (setting [4]) was 6.30 to 7.30 in each case.

As to `CC(=O)N1CCCN(c2cc(-n3nc(Nc4ccc(N(C)C(=O)Oc5ccccc5)cc4)nc3N)ncn2)CC1` [Compound 134], the pKi in test [1] and in test [2] was over 7.30 throughout.

Take `CNc1ccc(Nc2nc(N)n(-c3cc(N4C[C@@H](C)N(C(C)=O)[C@@H](C)C4)ncn3)n2)cc1` [Compound 116]: the pKi in test [1] (setting [3]) and in test [2] (setting [4]) was over 7.30 each time.

On to `Nc1nc(Nc2ccc(N3CCOCC3)cc2)nn1-c1cc(N2CCN3C(=O)CC[C@H]3C2)ncn1` [Compound 22], for which the pKi in test [1] (setting [3]) and in test [2] (setting [4]) was over 7.30 in each case.

For the compound `CCS(=O)(=O)N1CCN(c2ccc(Nc3nc(N)n(-c4ccnc(N5CCCN(C(=O)OC)CC5)c4)n3)cc2)CC1` [Compound 152], the pKi in test [1] (setting [3]) and in test [2] (setting [4]) was 6.30 to 7.30 throughout.

On to `CCCNC(=O)N1CCN(c2ccc(Nc3nc(N)n(-c4cc(N5C[C@@H](C)N(C(C)=O)[C@@H](C)C5)ncn4)n3)cc2)CC1` [Compound 61], for which the negative logarithm of the Ki (pKi) in test [1] (setting [3]) and in test [2] (setting [4]) was over 7.30 in each case.

Consider `CC(=O)N1[C@H](C)CN(c2cc(-n3nc(Nc4ccc(N5CCN(C(=O)NC(C)C)CC5)cc4)nc3N)ncn2)C[C@@H]1C` [Compound 62], for which the pKi in test [1] (setting [3]) and in test [2] (setting [4]) was over 7.30 in each case.

`CCOC(=O)Nc1ccc(Nc2nc(N)n(-c3cc(N4CCCN(C(C)=O)CC4)ncn3)n2)cc1` [Compound 91]: the pKi in test [1] (setting [3]) and in test [2] (setting [4]) was over 7.30 in each case.

In the case of `Nc1nc(Nc2ccc(N3CCOCC3)cc2)nn1-c1cc(N2CCN3C(=O)CC[C@@H]3C2)ncn1` [Compound 23], the negative logarithm of the Ki (pKi) in test [1] (setting [3]) and in test [2] (setting [4]) was over 7.30 throughout.

Take `COC(=O)N1CCN(c2ccc(Nc3nc(N)n(-c4cc(N5CCCN(C(C)=O)CC5)ncn4)n3)cc2)CC1` [Compound 45]: the pKi in test [1] (setting [3]) and in test [2] (setting [4]) was over 7.30 each time.

Consider `CC(=O)N1CCCN(c2cc(-n3nc(Nc4ccc(NC(=O)Oc5ccc(C)cc5)cc4)nc3N)ncn2)CC1` [Compound 96], for which the pKi in test [1] (setting [3]) and in test [2] (setting [4]) was over 7.30 in each case.

For `CCCOC(=O)N1CCCN(c2cc(-n3nc(Nc4ccc(N5CCN(S(=O)(=O)CC)CC5)cc4)nc3N)ccn2)CC1` [Compound 154], the negative-log Ki (pKi) in test [1] (setting [3]) and in test [2] (setting [4]) was 6.30 to 7.30 each time.

For the compound `CC(=O)N1[C@H](C)CN(c2cc(-n3nc(Nc4ccc(NC(=O)OCC(C)C)cc4)nc3N)ncn2)C[C@@H]1C` [Compound 79], the negative logarithm of the Ki (pKi) in test [1] (setting [3]) and in test [2] (setting [4]) was over 7.30 in each case.

In the case of `CCCOC(=O)Nc1ccc(Nc2nc(N)n(-c3cc(N4C[C@@H](C)N(C(C)=O)[C@@H](C)C4)ncn3)n2)cc1` [Compound 77], the negative-log Ki (pKi) in test [1] (setting [3]) and in test [2] (setting [4]) was over 7.30 each time.

On to `CNc1ccc(Nc2nc(N)n(-c3cc(N4CCCN(C(C)=O)CC4)ncn3)n2)cc1` [Compound 117], for which the pKi in test [1] (setting [3]) and in test [2] (setting [4]) was over 7.30 each time.

Regarding `CCCOC(=O)N1CCN(c2ccc(Nc3nc(N)n(-c4ccnc(N5CCCN(C(=O)OCC)CC5)c4)n3)cc2)CC1` [Compound 159], the negative-log Ki (pKi) in test [1] (setting [3]) and in test [2] (setting [4]) was 6.30 to 7.30 each time.

Take `CCOC(=O)N1CCN(c2ccc(Nc3nc(N)n(-c4cc(NC)ncn4)n3)cc2)CC1` [Compound 167]: the pKi in test [1] (setting [3]) and in test [2] (setting [4]) was over 7.30 in each case.

For `CC(=O)N1[C@H](C)CN(c2cc(-n3nc(Nc4ccc(NC(=O)NC(C)(C)C)cc4)nc3N)ccn2)C[C@@H]1C` [Compound 108], the negative-log Ki (pKi) in test [1] (setting [3]) and in test [2] (setting [4]) was over 7.30 in each case.

Turning to `COC(=O)Nc1ccc(Nc2nc(N)n(-c3cc(N4C[C@@H](C)N(C(C)=O)[C@@H](C)C4)ncn3)n2)cc1` [Compound 75], the negative logarithm of the Ki (pKi) in test [1] (setting [3]) and in test [2] (setting [4]) was over 7.30 each time.

As for `CC(=O)CC(=O)N1CCCN(c2cc(-n3nc(Nc4ccc(N5CCOCC5)cc4)nc3N)ncn2)CC1` [Compound 6], the pKi in test [1] (setting [3]) and in test [2] (setting [4]) was over 7.30 throughout.

Turning to `CCCCOC(=O)Nc1ccc(Nc2nc(N)n(-c3ccnc(N4CCCN(C(C)=O)CC4)c3)n2)cc1` [Compound 174], the negative logarithm of the Ki (pKi) in test [1] (setting [3]) and in test [2] (setting [4]) was 6.30 to 7.30 each time.

For the compound `CC(=O)N1CCCN(c2cc(-n3nc(Nc4ccc(N5CCN(C(=O)C6CCOCC6)CC5)cc4)nc3N)ncn2)CC1` [Compound 41], the pKi in test [1] (setting [3]) and in test [2] (setting [4]) was over 7.30 in each case.

Take `CC(=O)N1[C@H](C)CN(c2cc(-n3nc(Nc4ccc(N5CCOCC5)cc4)nc3N)ncn2)C[C@@H]1C` [Compound 16]: the pKi in test [1] (setting [3]) and in test [2] (setting [4]) was over 7.30 throughout.

In the case of `CC(=O)N1[C@H](C)CN(c2cc(-n3nc(Nc4ccc(NC(=O)NC(C)(C)C)cc4)nc3N)ncn2)C[C@@H]1C` [Compound 70], the pKi in test [1] (setting [3]) and in test [2] (setting [4]) was over 7.30 in each case.

Turning to `CC(=O)Nc1ccc(Nc2nc(N)n(-c3ccnc(N4C[C@@H](C)N(C(C)=O)[C@@H](C)C4)c3)n2)cc1` [Compound 35, N-(4-{1-[2-(4-Acetyl-3,5-dimethyl-piperazin-1-yl)-pyridin-4-yl]-5-amino-1H-[1,2,4]triazol-3-ylamino}-phenyl)-acetamide], the negative logarithm of the Ki (pKi) in test [1] (setting [3]) and in test [2] (setting [4]) was over 7.30 in each case.

For `CC(C)OC(=O)N1CCN(c2ccc(Nc3nc(N)n(-c4ccnc(N5CCCN(S(C)(=O)=O)CC5)c4)n3)cc2)CC1` [Compound 168], the pKi in test [1] (setting [3]) and in test [2] (setting [4]) was 6.30 to 7.30 each time.

In the case of `CC(=O)N1[C@H](C)CN(c2cc(-n3nc(Nc4ccc(N5CCN(C(=O)OCC(C)C)CC5)cc4)nc3N)ncn2)C[C@@H]1C` [Compound 58], the negative logarithm of the Ki (pKi) in test [1] (setting [3]) and in test [2] (setting [4]) was over 7.30 in each case.

With `CC(=O)N1CCCN(c2cc(-n3nc(Nc4ccc(N5CCN(C(=O)OCC(C)(C)C)CC5)cc4)nc3N)ncn2)CC1` [Compound 49], the pKi in test [1] (setting [3]) and in test [2] (setting [4]) was over 7.30 each time.

As for `CC(=O)N1[C@H](C)CN(c2cc(-n3nc(Nc4ccc(N)cc4)nc3N)ccn2)C[C@@H]1C` [Compound 99], the pKi in test [1] (setting [3]) and in test [2] (setting [4]) was over 7.30 each time.

Consider `CC(=O)N1CCCN(c2cc(-n3nc(Nc4ccc(N5CCN(C(=O)C(C)C)CC5)cc4)nc3N)ncn2)CC1` [Compound 44], for which the pKi in test [1] (setting [3]) and in test [2] (setting [4]) was over 7.30 in each case.

Regarding `COC(=O)Nc1ccc(Nc2nc(N)n(-c3cc(N4CCCN(C(C)=O)CC4)ncn3)n2)cc1` [Compound 90], the pKi in test [1] (setting [3]) and in test [2] (setting [4]) was over 7.30 in each case.

For `CC(=O)N1CCCN(c2cc(-n3nc(Nc4ccc(NC(=O)c5cccnc5)cc4)nc3N)ncn2)CC1` [Compound 27], the pKi in test [1] (setting [3]) and in test [2] (setting [4]) was over 7.30 throughout.

For `CC(=O)N1[C@H](C)CN(c2cc(-n3nc(Nc4ccc(N(C)C(=O)OCC(C)C)cc4)nc3N)ncn2)C[C@@H]1C` [Compound 120], the negative-log Ki (pKi) in test [1] (setting [3]) and in test [2] (setting [4]) was over 7.30 in each case.

For the compound `CC(=O)N1CCCN(c2cc(-n3nc(Nc4ccc(N(C)C(=O)OCC(C)(C)C)cc4)nc3N)ncn2)CC1` [Compound 132], the pKi in test [1] (setting [3]) and in test [2] (setting [4]) was over 7.30 each time.

As to `CC(=O)N1[C@H](C)CN(c2cc(-n3nc(Nc4ccc(NC(=O)O[C@@H]5C[C@@H](C)CC[C@@H]5C(C)C)cc4)nc3N)ncn2)C[C@@H]1C` [Compound 83], the negative logarithm of the Ki (pKi) in test [2] (setting [4]) was over 7.30.
